Laboratory results: patent US9464058B2 (Hoffmann-La Roche Inc., priority 2012, dated 2016)

Legend:
[1] = molecular target: T1, human CYP11B1 (Homo sapiens, UniProt P15538); assay: G-402 cellular enzyme assay, human CYP11B1 (cortisol release, HTRF); assay type: cell-based; conditions: G-402 cells expressing human CYP11B1; 1 μM Deoxycortisol; 16 h
T1 construct: expressed in transfected cells
T1 sequence (P15538 25-503): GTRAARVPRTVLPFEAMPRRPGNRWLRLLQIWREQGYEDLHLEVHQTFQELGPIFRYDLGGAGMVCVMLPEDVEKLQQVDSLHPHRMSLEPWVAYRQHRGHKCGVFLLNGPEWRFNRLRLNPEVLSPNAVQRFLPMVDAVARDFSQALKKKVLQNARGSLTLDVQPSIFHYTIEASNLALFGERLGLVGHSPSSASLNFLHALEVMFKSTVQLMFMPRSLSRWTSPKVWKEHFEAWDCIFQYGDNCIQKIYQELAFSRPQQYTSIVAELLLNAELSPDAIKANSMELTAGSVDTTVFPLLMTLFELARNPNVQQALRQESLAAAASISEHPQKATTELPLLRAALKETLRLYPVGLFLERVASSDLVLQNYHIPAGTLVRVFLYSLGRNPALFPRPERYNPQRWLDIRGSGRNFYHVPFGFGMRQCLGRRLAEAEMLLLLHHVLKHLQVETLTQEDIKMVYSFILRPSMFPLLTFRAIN
Method in brief: (§1)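 G-402 cells stably expressing human CYP11B2 or CYP11B1, incubated 16 h with compound in DMEM/F12 with 2.5% charcoal-treated FCS plus 1 μM deoxycorticosterone (CYP11B2) or 1 μM deoxycortisol (CYP11B1). Aldosterone or cortisol in supernatant measured by HTRF; EC50 from 4-parameter MMF fit.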

[2] = molecular target: T2, human CYP11B2 (Homo sapiens, UniProt P19099); assay: G-402 cellular enzyme assay, human CYP11B2 (aldosterone release, HTRF); assay type: cell-based; conditions: G-402 cells expressing human CYP11B2; 1 μM Deoxycorticosterone; 16 h
T2 construct: expressed in transfected cells
T2 sequence (P19099 25-503): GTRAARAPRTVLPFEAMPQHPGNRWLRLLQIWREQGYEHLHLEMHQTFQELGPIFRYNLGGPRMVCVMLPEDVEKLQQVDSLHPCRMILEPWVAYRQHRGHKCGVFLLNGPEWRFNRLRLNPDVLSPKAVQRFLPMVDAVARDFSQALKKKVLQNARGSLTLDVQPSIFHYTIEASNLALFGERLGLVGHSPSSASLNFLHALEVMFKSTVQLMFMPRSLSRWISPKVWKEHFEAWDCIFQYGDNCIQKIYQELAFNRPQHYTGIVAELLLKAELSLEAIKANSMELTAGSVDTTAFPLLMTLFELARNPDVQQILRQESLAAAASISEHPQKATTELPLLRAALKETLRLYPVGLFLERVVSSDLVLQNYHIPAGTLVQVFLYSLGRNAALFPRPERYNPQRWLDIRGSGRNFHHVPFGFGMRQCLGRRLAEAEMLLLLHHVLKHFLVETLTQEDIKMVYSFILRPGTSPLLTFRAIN
Method in brief: as §1

[3] = test system: rat model of chronic kidney disease; conditions: rat CKD model, cited from earlier work; for renal effects (albuminuria, azotemia, renovascular hypertrophy, glomerular injury, PAI-1 and osteopontin mRNA, tubulointerstitial fibrosis): angiotensin II and high salt
[4] = test system: rats with experimental heart failure; conditions: cited from earlier work
[5] = test system: patients with primary aldosteronism; conditions: oral; cited from earlier work

| Compound | EC50 [1] [nM] | EC50 [2] [nM] | further results |
| --- | --- | --- | --- |
| CC(C)n1cncc1C(=O)c1ccc(Br)cc1 [Example 72, (4-Bromo-phenyl)-(3-isopropyl-3H-imidazol-4-yl)-methanone] | 10.1 | 5.2 |  |
| CCn1cncc1C(=O)c1ccc(SC(F)(F)F)cc1 [Example 74, (3-Ethyl-3H-imidazol-4-yl)-(4-trifluoromethylsulfanyl-phenyl)-methanone] | 1320 | 235 |  |
| CC(C)n1cncc1C(=O)c1ccc(SC(F)(F)F)cc1 [Example 75, (3-Isopropyl-3H-imidazol-4-yl)-(4-trifluoromethylsulfanyl-phenyl)-methanone] | 760 | 89.9 |  |
| CCC(CC)n1cncc1C(=O)c1ccc(SC(F)(F)F)cc1 [Example 76, [3-(1-Ethyl-propyl)-3H-imidazol-4-yl]-(4-trifluoromethylsulfanyl-phenyl)-methanone] | 264 | 42.7 |  |
| N#Cc1ccc(-n2cncc2C(=O)c2ccc(Cl)cc2)cc1Cl [Example 77, 2-Chloro-4-[5-(4-chloro-benzoyl)-imidazol-1-yl]-benzonitrile] | 9.8 | 1.9 |  |
| N#Cc1ccc(-n2cncc2C(=O)c2ccc(Cl)c(Cl)c2)cc1Cl [Example 78, 2-Chloro-4-[5-(3,4-dichloro-benzoyl)-imidazol-1-yl]-benzonitrile] | 145 | 3.7 |  |
| COc1cc(C(=O)c2cncn2C)ccc1SC(F)(F)F [Example 79, (3-Methoxy-4-trifluoromethylsulfanyl-phenyl)-(3-methyl-3H-imidazol-4-yl)-methanone] | 1580 | 14.8 |  |
| CCn1cncc1C(=O)c1ccc(SC(F)(F)F)c(OC)c1 [Example 80, (3-Ethyl-3H-imidazol-4-yl)-(3-methoxy-4-trifluoromethylsulfanyl-phenyl)-methanone] | 634 | 12.9 |  |
| COc1cc(C(=O)c2cncn2C(C)C)ccc1SC(F)(F)F [Example 81, (3-Isopropyl-3H-imidazol-4-yl)-(3-methoxy-4-trifluoromethylsulfanyl-phenyl)-methanone] | 199 | 15.9 |  |
| CCC(CC)n1cncc1C(=O)c1ccc(C#N)cc1 [Example 82, 4-[3-(1-Ethyl-propyl)-3H-imidazole-4-carbonyl]-benzonitrile] | 3.3 | 0.2 |  |
| CCC(CC)n1cncc1C(=O)c1cccc(C#N)c1 [Example 83, 3-[3-(1-Ethyl-propyl)-3H-imidazole-4-carbonyl]-benzonitrile] | 57 | 5.7 |  |
| CNc1ccc(C(=O)c2cncn2C)cc1 [Example 86, (4-Methylamino-phenyl)-(3-methyl-3H-imidazol-4-yl)-methanone] | 3750 | 1620 |  |
| CN(C=O)c1ccc(C(=O)c2cncn2C)cc1 [Example 87, N-Methyl-N-[4-(3-methyl-3H-imidazole-4-carbonyl)-phenyl]-formamide] | 30400 | 186 |  |
| CCn1cncc1C(=O)c1ccc(N(C)C(=O)OC(C)(C)C)cc1 [Example 88, [4-(3-Ethyl-3H-imidazole-4-carbonyl)-phenyl]-methyl-carbamic acid tert-butyl ester] | 1290 | 2200 |  |
| CCn1cncc1C(=O)c1ccc(N(C)C=O)cc1 [Example 89, N-[4-(3-Ethyl-3H-imidazole-4-carbonyl)-phenyl]-N-methyl-formamide] | 744 | 29.4 |  |
| O=C(c1ccc(Cl)cc1)c1cncn1-c1ccc(Cl)cc1 [Example 90, (4-Chloro-phenyl)-[3-(4-chloro-phenyl)-3H-imidazol-4-yl]-methanone] | 3620 | 2.6 |  |
| O=C(c1ccc(Cl)c(Cl)c1)c1cncn1-c1ccc(Cl)cc1 [Example 91, [3-(4-Chloro-phenyl)-3H-imidazol-4-yl]-(3,4-dichloro-phenyl)-methanone] | 439 | 4.2 |  |
| O=C(c1ccc(Cl)c(F)c1)c1cncn1-c1ccc(Cl)cc1 [Example 92, (4-Chloro-3-fluoro-phenyl)-[3-(4-chloro-phenyl)-3H-imidazol-4-yl]-methanone] | 132 | 3.2 |  |
| CC(C)n1cncc1C(=O)c1ccc(N(C)C=O)cc1 [Example 93, N-[4-(3-Isopropyl-3H-imidazole-4-carbonyl)-phenyl]-N-methyl-formamide] | 349 | 11.7 |  |
| N#Cc1ccc(-n2cncc2C(=O)c2ccc(Cl)c(F)c2)cc1 [Example 94, 4-[5-(4-Chloro-3-fluoro-benzoyl)-imidazol-1-yl]-benzonitrile] | 84.6 | 14.4 |  |
| N#Cc1ccc(-n2cncc2C(=O)c2ccc(Cl)cc2)cc1 [Example 95, 4-[5-(4-Chloro-benzoyl)-imidazol-1-yl]-benzonitrile] | 71.8 | 2.2 |  |
| N#Cc1ccc(-n2cncc2C(=O)c2ccc(Cl)c(Cl)c2)cc1 [Example 96, 4-[5-(3,4-Dichloro-benzoyl)-imidazol-1-yl]-benzonitrile] | 199 | 5.6 |  |
| O=C(c1ccc(F)c(F)c1)c1cncn1-c1ccc(Cl)cc1 [Example 97, [3-(4-Chloro-phenyl)-3H-imidazol-4-yl]-(3,4-difluoro-phenyl)-methanone] | 74.6 | 3.4 |  |
| N#Cc1ccc(C2CCCc3cncn32)cc1 (centres unmarked) [FAD286] |  |  | plasma aldosterone ([3]; 4 weeks of treatment): reduced; renal effects (albuminuria, azotemia, renovascular hypertrophy, glomerular injury, PAI-1 and osteopontin mRNA, tubulointerstitial fibrosis) [3]: prevented; angiotensin II and salt-stimulated PAI-1 mRNA expression in the aorta and the heart [3]: not; cardiac and aortic medial hypertrophy [3]: attenuated; blood pressure and cardiovascular function and structure [4]: improved; kidney function and morphology [4]: improve |
| N#Cc1ccc([C@H]2CCc3cncn32)c(F)c1 [LCI699] |  |  | blood pressure [5]: mildly decreased; circulating aldosterone levels [5]: significantly lower; hypokalemia [5]: corrected |
| CC(=O)S[C@@H]1CC2=CC(=O)CC[C@]2(C)[C@H]2CC[C@@]3(C)[C@@H](CC[C@@]34CCC(=O)O4)[C@H]12 [spironolactone] |  |  | renal effects (albuminuria, azotemia, renovascular hypertrophy, glomerular injury, PAI-1 and osteopontin mRNA, tubulointerstitial fibrosis) [3]: prevented; aldosterone ([3]; at 4 and 8 weeks of treatment): increased; angiotensin II and salt-stimulated PAI-1 mRNA expression in the aorta and the heart [3]: enhanced; cardiac and aortic medial hypertrophy [3]: attenuated |
